Reference: US9617286B2, “Fungicide N-[(trisubstitutedsilyl)methyl]-carboxamide derivatives” (BAYER INTELLECTUAL PROPERTY GMBH, priority 2011, dated 2017)

Experiments:
Puccinia recondita = assay: In vivo preventive test on Puccinia recondita (brown rust on wheat); conditions: preventive spray, 500 ppm of active ingredient, grading 12 days after contamination
Method: Wheat plants (“Scipion” variety), sown in starter cups on a 50/50 peat soil pozzolana substrate and grown at 22° C., are treated at the 1 leaf stage (10 cm height) by spraying with the active ingredient prepared as described above. Plants, used as controls, are treated with the mixture of acetone/tween/DMSO/water not containing the active material. After 24 hours, the plants are contaminated by spraying the leaves with an aqueous suspension of Puccinia recondita spores (100 000 spores per mL). The spores are collected from an infected plant and are suspended in water containing 2.5 mL/L of Tween 80 at 10%. The contaminated wheat plants are incubated for 24 hours at 20° C. and at 100% relative humidity, and then for 10 days at 20° C. and at 70-80% relative humidity. Grading (% of efficacy) is carried out 12 days after the contamination, in comparison with the control plants.

Botrytis cinerea [1] = assay: In vivo preventive test on Botrytis cinerea (grey mould) - 2nd test; conditions: gherkin plants, 2nd test (acetone/tween/DMSO), 500 ppm of active ingredient, grading 4 to 5 days after contamination
Method: Gherkin plants (“Vert petit de Paris” variety), sown in starter cups on a 50/50 peat soil pozzolana substrate and grown at 24° C., are treated at the Z11 cotyledon stage by spraying with the active ingredient prepared as described above. Plants, used as controls, are treated with the mixture of acetone/tween/DMSO/water not containing the active material. After 24 hours, the plants are contaminated by spraying the cotyledons with an aqueous suspension of cryopreserved Botrytis cinerea spores (50 000 spores per mL). The spores are suspended in a nutrient solution composed of 10 g/L of PDB, 50 g/L of D-Fructose, 2 g/L of NH4NO3 and 1 g/L of KH2PO4. The contaminated gherkin plants are incubated at 17° C. and at 90% relative humidity. Grading (% of efficacy) is carried out 4 to 5 days after the contamination, in comparison with the control plants.

Pyrenophora teres [2] = assay: In vivo preventive test on Pyrenophora teres (barley) - 2nd test; conditions: 2nd test (acetone/tween/DMSO), 500 ppm of active ingredient, grading 14 days after contamination
Method: Barley plants (“Plaisant” variety), sown in starter cups on a 50/50 peat soil pozzolana substrate and grown at 22° C., are treated at the 1 leaf stage (10 cm height) by spraying with the active ingredient prepared as described above. Plants, used as controls, are treated with the mixture of acetone/tween/DMSO/water not containing the active material. After 24 hours, the plants are contaminated by spraying the leaves with an aqueous suspension of Pyrenophora teres spores (12 000 spores per mL). The spores are collected from a 12-day-old culture. The contaminated barley plants are incubated for 48 hours at 20° C. and at 100% relative humidity, and then for 12 days at 20° C. at 70-80% relative humidity. Grading (% of efficacy) is carried out 14 days after the contamination, in comparison with the control plants.

Pyrenophora teres [3] = assay: In vivo preventive test on Pyrenophora teres (barley); conditions: preventive spray (DMF/alkylaryl polyglycol ether), 500 ppm of active ingredient, evaluated 7-9 days after inoculation
Method in brief: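 Young barley plants sprayed preventively with compound in DMF/emulsifier diluted in water, then inoculated one day later with aqueous P. teres spore suspension. Held 48 h at 22 °C and 100% relative humidity, then greenhouse at about 20 °C and 80% humidity.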

Septoria tritici = assay: In vivo preventive test on Septoria tritici (wheat); conditions: preventive spray, 500 ppm of active ingredient, grading 24 days after contamination
Method: Wheat plants (“Scipion” variety), sown in starter cups on a 50/50 peat soil pozzolana substrate and grown at 22° C., are treated at the 1 leaf stage (10 cm height) by spraying with the active ingredient prepared as described above. Plants, used as controls, are treated with the mixture of acetone/tween/DMSO/water not containing the active material. After 24 hours, the plants are contaminated by spraying the leaves with an aqueous suspension of cryopreserved Septoria tritici spores (500 000 spores per mL). The contaminated wheat plants are incubated for 72 hours at 18° C. and at 100% relative humidity, and then for 21 days at 90% relative humidity. Grading (% of efficacy) is carried out 24 days after the contamination, in comparison with the control plants.

Uromyces appendiculatus = assay: In vivo preventive test on Uromyces appendiculatus (bean rust); conditions: bean plants, preventive spray, 500 ppm of active ingredient, grading 11 days after contamination
Method: Bean plants (“Saxa” variety), sown in starter cups on a 50/50 peat soil pozzolana substrate and grown at 24° C., are treated at the 2 leaf stage (9 cm height) by spraying with the active ingredient prepared as described above. Plants, used as controls, are treated with the mixture of acetone/tween/DMSO/water not containing the active material. After 24 hours, the plants are contaminated by spraying the leaves with an aqueous suspension of Uromyces appendiculatus spores (150 000 spores per mL). The spores are collected from infected plants and are suspended in water containing 2.5 mL/L of Tween 80 at 10%. The contaminated bean plants are incubated for 24 hours at 20° C. and at 100% relative humidity, and then for 10 days at 20° C. and at 70-80% relative humidity. Grading (% of efficacy) is carried out 11 days after the contamination, in comparison with the control plants.

Sphaerotheca fuliginea = assay: In vivo preventive test on Sphaerotheca fuliginea (powdery mildew on cucurbits); conditions: gherkin plants, preventive spray, 500 ppm of active ingredient, grading 12 days after contamination
Method: Gherkin plants (“Vert petit de Paris” variety), sown in starter cups on a 50/50 peat soil-pozzolana substrate and grown at 24° C., are treated at the Z11 cotyledon stage by spraying with the active ingredient prepared as described above. Plants, used as controls, are treated with the mixture of acetone/tween/DMSO/water not containing the active material. After 24 hours, the plants are contaminated by spraying the cotyledons with an aqueous suspension of Sphaerotheca fuliginea spores (100 000 spores per mL). The spores are collected from infected plants. The contaminated gherkin plants are incubated at about 20° C. and at 70-80% relative humidity. Grading (% of efficacy) is carried out 12 days after the contamination, in comparison with the control plants.

[4] = log P by HPLC on reversed-phase column (C 18), EEC Directive 79/831 Annex V.A8; type: physicochemical; conditions: 40° C., 0.1% aqueous formic acid and acetonitrile, linear gradient 10% to 90% acetonitrile
Method in brief: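 Reversed-phase C18 HPLC at 40° C, 0.1% aqueous formic acid/acetonitrile gradient from 10% to 90% acetonitrile. log P derived from retention times by linear interpolation between unbranched alkan-2-ones (3–16 carbons) of known log P.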

Alternaria solani = assay: In vivo preventive test on Alternaria solani (tomato); conditions: preventive spray, 500 ppm of active ingredient, evaluated 7 days after inoculation
Method: (§1) Solvent: 49 parts by weight of N,N-dimethylformamide Emulsifier: 1 part by weight of alkylaryl polyglycol ether To produce a suitable preparation of active compound, 1 part by weight of active compound is mixed with the stated amounts of solvent and emulsifier, and the concentrate is diluted with water to the desired concentration. To test for preventive activity, young plants are sprayed with the preparation of active compound at the stated rate of application. One day after this treatment, the plants are inoculated with an aqueous spore suspension of Alternaria solani. The plants remain for one day in an incubation cabinet at approximately 22° C. and a relative atmospheric humidity of 100%. Then the plants are placed in an incubation cabinet at approximately 20° C. and a relative atmospheric humidity of 96%.

Alternaria brassicae = assay: In vivo preventive test on Alternaria brassicae (leaf spot on radish); conditions: preventive spray, 500 ppm of active ingredient, grading 6 days after contamination
Method: Radish plants (“Pernod Clair” variety), sown in starter cups on a 50/50 peat soil pozzolana substrate and grown at 17° C., are treated at the cotyledon stage by spraying with the active ingredient prepared as described above. Plants, used as controls, are treated with the mixture of acetone/tween/DMSO/water not containing the active material. After 24 hours, the plants are contaminated by spraying the cotyledons with an aqueous suspension of Alternaria brassicae spores (50 000 spores per mL). The spores are collected from a 15-day-old culture. The contaminated radish plants are incubated at 20° C. and at 100% relative humidity. Grading (% of efficacy) is carried out 6 days after the contamination, in comparison with the control plants.

Leptosphaeria nodorum = assay: In vivo preventive test on Leptosphaeria nodorum (wheat); conditions: preventive spray, 500 ppm of active ingredient, evaluated 7-9 days after inoculation
Method: Solvent: 49 parts by weight of N,N-dimethylformamide Emulsifier: 1 part by weight of alkylaryl polyglycol ether To produce a suitable preparation of active compound, 1 part by weight of active compound is mixed with the stated amounts of solvent and emulsifier, and the concentrate is diluted with water to the desired concentration. To test for preventive activity, young plants are sprayed with a preparation of active compound at the stated rate of application. One day after this treatment, the plants are inoculated with an aqueous spore suspension of Leptosphaeria nodorum. The plants remain for 48 hours in an incubation cabinet at 22° C. and a relative atmospheric humidity of 100%. Then the plants are placed in a greenhouse at a temperature of approximately 22° C. and a relative atmospheric humidity of approximately 90%.

Botrytis cinerea [5] = assay: In vivo preventive test on Botrytis cinerea (cucumber); conditions: preventive spray (DMF/alkylaryl polyglycol ether), 500 ppm of active ingredient, evaluated 5-6 days after inoculation
Method: as §1, with “Botrytis cinerea.” for “Alternaria solani.”, “two days” for “one day”, “14°” for “20°”

Pyricularia oryzae = type: in vivo; conditions: rice, preventive spray, 500 ppm of active ingredient, grading 6 days after contamination

Compound: C[Si](C)(CNC(=O)c1cccnc1C(F)F)c1ccccc1 [Example 1, 2-(difluoromethyl)-N-{[dimethyl(phenyl)silyl]methyl}nicotinamide]
- Efficacy (Puccinia recondita): 88%
- Efficacy (Botrytis cinerea [1]): 89%
- Efficacy (Pyrenophora teres [2]): 79%
- Efficacy (Pyrenophora teres [3]): 90%
- Efficacy (Septoria tritici): 100%
- Efficacy (Uromyces appendiculatus): 100%
- Efficacy (Sphaerotheca fuliginea): 98%
- chromatographic logP [4]: 2.71
- Efficacy (Alternaria solani): 95%

Compound: C[Si](C)(CNC(=O)c1cccnc1C(F)(F)F)c1ccccc1 [Example 2]
- Efficacy (Puccinia recondita): 88%
- Efficacy (Septoria tritici): 100%
- Efficacy (Uromyces appendiculatus): 100%
- Efficacy (Sphaerotheca fuliginea): 83%
- logP [4]: 2.92

Compound: C[Si](C)(CN(C(=O)c1nccnc1C(F)(F)F)C1CC1)c1ccccc1F [Example 14]
- Efficacy (Puccinia recondita): 98%
- Efficacy (Pyrenophora teres [3]): 100%
- Efficacy (Septoria tritici): 93%
- Efficacy (Uromyces appendiculatus): 84%
- Efficacy (Sphaerotheca fuliginea): 98%
- Efficacy (Alternaria brassicae): 95%
- logP [4]: 4.18

Compound: C[Si](C)(CNC(=O)c1cccnc1C(F)F)c1ccccc1Cl [Example 22]
- Efficacy (Puccinia recondita): 100%
- Efficacy (Botrytis cinerea [1]): 92%
- Efficacy (Septoria tritici): 96%
- Efficacy (Uromyces appendiculatus): 96%
- Efficacy (Sphaerotheca fuliginea): 78%
- logP [4]: 3.06

Compound: C[Si](C)(CN(C(=O)c1cccnc1C(F)F)C1CC1)c1cccc(Cl)c1 [Example 34]
- Efficacy (Pyrenophora teres [3]): 100%
- Efficacy (Leptosphaeria nodorum): 80%
- Efficacy (Botrytis cinerea [5]): 85%
- logP [4]: 3.87
- Efficacy (Alternaria solani): 89%

Compound: CC1=C(C(=O)NC[Si](C)(C)c2ccccc2Cl)SCCO1 [Example 42]
- Efficacy (Puccinia recondita): 72%
- Efficacy (Pyrenophora teres [2]): 93%
- Efficacy (Septoria tritici): 100%
- logP [4]: 3.50

Compound: C[Si](C)(CN(C(=O)c1cccnc1C(F)F)C1CC1)c1ccc(F)cc1Cl [Example 45]
- Efficacy (Puccinia recondita): 75%
- Efficacy (Septoria tritici): 80%
- Efficacy (Sphaerotheca fuliginea): 83%
- Efficacy (Alternaria brassicae): 90%
- logP [4]: 3.96
- Efficacy (Pyricularia oryzae): 83%

Compound: C[Si](C)(CN(C(=O)c1cccnc1Cl)C1CC1)c1ccc(F)cc1Cl [Example 46]
- logP [4]: 4.06
- Efficacy (Pyricularia oryzae): 92%

Compound: C[Si](C)(CN(C(=O)c1cccnc1C(F)F)C1CC1)c1ccc(Cl)cc1Cl [Example 62]
- Efficacy (Puccinia recondita): 92%
- Efficacy (Pyrenophora teres [2]): 93%
- Efficacy (Pyrenophora teres [3]): 100%
- Efficacy (Leptosphaeria nodorum): 70%
- Efficacy (Septoria tritici): 100%
- Efficacy (Sphaerotheca fuliginea): 79%
- logP [4]: 4.51
- Efficacy (Alternaria solani): 94%

Compound: C[Si](C)(CN(C(=O)c1nccnc1C(F)(F)F)C1CC1)c1ccc2ccccc2c1 [Example 77]
- Efficacy (Pyrenophora teres [3]): 100%
- Efficacy (Leptosphaeria nodorum): 95%
- Efficacy (Botrytis cinerea [5]): 95%
- logP [4]: 4.80
- Efficacy (Alternaria solani): 78%

Compound: C[Si](C)(CN(C(=O)c1cccnc1C(F)F)C1CC1)c1ccc2ccccc2c1 [Example 79]
- Efficacy (Pyrenophora teres [3]): 95%
- Efficacy (Leptosphaeria nodorum): 90%
- Efficacy (Botrytis cinerea [5]): 70%
- logP [4]: 4.11
- Efficacy (Alternaria solani): 89%

Compound: C[Si](C)(Cc1ccccc1)CN(C(=O)c1cccnc1C(F)F)C1CC1 [Example 92]
- Efficacy (Pyrenophora teres [3]): 90%
- Efficacy (Leptosphaeria nodorum): 80%
- Efficacy (Botrytis cinerea [5]): 98%
- logP [4]: 3.80
- Efficacy (Alternaria solani): 78%

Compound: C[Si](C)(Cc1ccccc1)CN(C(=O)c1nccnc1C(F)(F)F)C1CC1 [Example 93]
- Efficacy (Pyrenophora teres [3]): 70%
- Efficacy (Leptosphaeria nodorum): 80%
- Efficacy (Botrytis cinerea [5]): 100%
- logP [4]: 4.44
- Efficacy (Alternaria solani): 75%
